In a compilation of properties of binary mixtures (doi:10.1016/j.molliq.2020.113742):

Experiment: xn = mol fraction of the nth substance listed

CCCC[N+]1(C)CCCC1.F[P-](F)(F)(F)(F)F + CCCC[n+]1cccc(C)c1.F[P-](F)(F)(F)(F)F
viscosity (303.13 K, 101.3 kPa, x2 = 0.4): 746 mPa·s | viscosity (308.15 K, 101.3 kPa, x2 = 0.5): 480 mPa·s | viscosity (308.15 K, 101.3 kPa, x2 = 0.6): 427 mPa·s | viscosity (313.15 K, 101.3 kPa, x2 = 0.3): 448 mPa·s | viscosity (313.15 K, 101.3 kPa, x2 = 0.5): 352 mPa·s | viscosity (313.15 K, 101.3 kPa, x2 = 0.6): 313 mPa·s | viscosity (313.15 K, 101.3 kPa, x2 = 0.7): 277 mPa·s | viscosity (318.15 K, 101.3 kPa, x2 = 0.3): 334 mPa·s | viscosity (318.15 K, 101.3 kPa, x2 = 0.6): 234 mPa·s | viscosity (318.15 K, 101.3 kPa, x2 = 0.7): 208 mPa·s | viscosity (318.15 K, 101.3 kPa, x2 = 0.8): 190 mPa·s | viscosity (323.15 K, 101.3 kPa, x2 = 0.3): 253 mPa·s | viscosity (323.15 K, 101.3 kPa, x2 = 0.4): 220 mPa·s | viscosity (323.15 K, 101.3 kPa, x2 = 0.5): 199 mPa·s | viscosity (323.15 K, 101.3 kPa, x2 = 0.6): 178 mPa·s | viscosity (323.15 K, 101.3 kPa, x2 = 0.7): 159 mPa·s | viscosity (323.15 K, 101.3 kPa, x2 = 0.8): 146 mPa·s | viscosity (323.15 K, 101.3 kPa, x2 = 0.9): 130 mPa·s | viscosity (328.15 K, 101.3 kPa, x2 = 0.2): 221 mPa·s | viscosity (328.15 K, 101.3 kPa, x2 = 0.3): 195 mPa·s | viscosity (328.15 K, 101.3 kPa, x2 = 0.5): 153 mPa·s | viscosity (328.15 K, 101.3 kPa, x2 = 0.6): 138 mPa·s | viscosity (328.15 K, 101.3 kPa, x2 = 0.8): 113 mPa·s | viscosity (333.15 K, 101.3 kPa, x2 = 0.2): 173 mPa·s | viscosity (333.15 K, 101.3 kPa, x2 = 0.3): 153 mPa·s | viscosity (333.15 K, 101.3 kPa, x2 = 0.4): 133 mPa·s | viscosity (333.15 K, 101.3 kPa, x2 = 0.5): 121 mPa·s | viscosity (333.15 K, 101.3 kPa, x2 = 0.7): 97 mPa·s | viscosity (333.15 K, 101.3 kPa, x2 = 0.8): 89 mPa·s | viscosity (333.15 K, 101.3 kPa, x2 = 0.9): 80 mPa·s | viscosity (338.15 K, 101.3 kPa, x2 = 0.2): 138 mPa·s | viscosity (338.15 K, 101.3 kPa, x2 = 0.3): 121 mPa·s | viscosity (338.15 K, 101.3 kPa, x2 = 0.4): 106 mPa·s | viscosity (338.15 K, 101.3 kPa, x2 = 0.6): 87 mPa·s | viscosity (338.15 K, 101.3 kPa, x2 = 0.7): 78 mPa·s | viscosity (338.15 K, 101.3 kPa, x2 = 0.8): 71 mPa·s | viscosity (338.15 K, 101.3 kPa, x2 = 0.9): 65 mPa·s | viscosity (343.15 K, 101.3 kPa, x2 = 0.3): 98 mPa·s | viscosity (343.15 K, 101.3 kPa, x2 = 0.5): 78 mPa·s | viscosity (343.15 K, 101.3 kPa, x2 = 0.7): 63 mPa·s | viscosity (343.15 K, 101.3 kPa, x2 = 0.8): 58 mPa·s | viscosity (343.15 K, 101.3 kPa, x2 = 0.9): 53 mPa·s | viscosity (348.15 K, 101.3 kPa, x2 = 0.2): 90 mPa·s | viscosity (348.15 K, 101.3 kPa, x2 = 0.3): 79 mPa·s | viscosity (348.15 K, 101.3 kPa, x2 = 0.4): 70 mPa·s | viscosity (348.15 K, 101.3 kPa, x2 = 0.5): 63 mPa·s | viscosity (348.15 K, 101.3 kPa, x2 = 0.7): 52 mPa·s | viscosity (348.15 K, 101.3 kPa, x2 = 0.8): 48 mPa·s | viscosity (348.15 K, 101.3 kPa, x2 = 0.9): 43 mPa·s | viscosity (353.15 K, 101.3 kPa, x2 = 0.2): 74 mPa·s | viscosity (353.15 K, 101.3 kPa, x2 = 0.3): 65 mPa·s | viscosity (353.15 K, 101.3 kPa, x2 = 0.5): 53 mPa·s | viscosity (353.15 K, 101.3 kPa, x2 = 0.6): 48 mPa·s | viscosity (353.15 K, 101.3 kPa, x2 = 0.7): 43 mPa·s | viscosity (353.15 K, 101.3 kPa, x2 = 0.8): 40 mPa·s | viscosity (353.15 K, 101.3 kPa, x2 = 0.9): 36 mPa·s | viscosity (358.15 K, 101.3 kPa, x2 = 0.3): 55 mPa·s | viscosity (358.15 K, 101.3 kPa, x2 = 0.5): 44 mPa·s | viscosity (358.15 K, 101.3 kPa, x2 = 0.6): 40 mPa·s | viscosity (358.15 K, 101.3 kPa, x2 = 0.7): 36 mPa·s | viscosity (358.15 K, 101.3 kPa, x2 = 0.8): 33 mPa·s | viscosity (358.15 K, 101.3 kPa, x2 = 0.9): 30 mPa·s | viscosity (363.15 K, 101.3 kPa, x2 = 0.2): 51 mPa·s | viscosity (363.15 K, 101.3 kPa, x2 = 0.3): 46 mPa·s | viscosity (363.15 K, 101.3 kPa, x2 = 0.4): 41 mPa·s | viscosity (363.15 K, 101.3 kPa, x2 = 0.7): 31 mPa·s | viscosity (363.15 K, 101.3 kPa, x2 = 0.8): 28 mPa·s | viscosity (363.15 K, 101.3 kPa, x2 = 0.9): 26 mPa·s

CCCC[N+]1(C)CCCCC1.F[P-](F)(F)(F)(F)F + CCCC[N+]1(C)CCCC1.F[P-](F)(F)(F)(F)F
viscosity (353.15 K, 102 kPa, x1 = 0.3): 126 mPa·s | viscosity (353.15 K, 102 kPa, x1 = 0.7): 194 mPa·s | viscosity (363.15 K, 102 kPa, x1 = 0.3): 85 mPa·s | viscosity (363.15 K, 102 kPa, x1 = 0.5): 101 mPa·s | viscosity (363.15 K, 102 kPa, x1 = 0.7): 125 mPa·s | viscosity (373.15 K, 102 kPa, x1 = 0.3): 58 mPa·s | viscosity (373.15 K, 102 kPa, x1 = 0.5): 68 mPa·s | viscosity (373.15 K, 102 kPa, x1 = 0.7): 84 mPa·s | viscosity (383.15 K, 102 kPa, x1 = 0.5): 48 mPa·s | viscosity (383.15 K, 102 kPa, x1 = 0.7): 59 mPa·s
